From patent publication US8653242B2, “Therapeutic antibodies against flagellated Pseudomonas aeruginosa” (priority 2010, dated 2014)
Values after ≈ are worked out from the molar mass of the structure shown. Where two headings read alike, the source gives them in different places.

B1: LST-007: human IgM monoclonal antibody of U.S. Pat. No. 4,834,976, specific to P. aeruginosa flagellin type B (antibody, V domains shown)
VH: MDWTWRVFFLLAVAPGAHSQVRLVQSGTEVKKPGASVRVSCKASGYTFSNYYMYWVRQAPGQGLEWMAMINPSGGSTRYAQKFQGRVTMTRDTSTSTVYMELSSLRSEDTAVYYCARADSGSYFGYWGQGTLVTVSS
VL: MRVPAQLLGLLLLWLPGARCDIQLTQSPSFLSASVGDRVPITCRASQGISTHLAWYQQKPGKAPKLLIYAASTLQSGVPSRFSGSGSGTEFTLTISSLQPEDSATYYCQQLKSYPLTFGGGTKVEIKR
B2: LST-002: mouse monoclonal antibody of U.S. Pat. No. 4,834,976, specific to P. aeruginosa flagellin type B (antibody, V domains shown)
VH: EVMLVESGGGLVKPGGSLKLSCAASGFTFSTFTMSWVRQTPEKRLECVATINGGGGNTYYPDSVKGRFTISRDNAKNNLYLQMSSLRSEDTAFYFCSRLYGIYAMDYWGQGTSVTVSS
VL: MKSHTQVFVYMLLWLSGVEGDIVMTQSHIFMSTSVGDRVSITCKASQDVGSAVAWYQQKPGQSPKVLIYWTSTRHTGVPDRFAGSGSGTEFTLTISNVQSEDLADYFCQQYSSYPLTFGAGTKLELKR

Key:
[1] = test system: Ka02 multi-drug resistant P. Aeruginosa strain; experiment: Antibiogram of Ka02 (Vitek MIC); type: cell-based; parameters: MIC site #2: unit not given here; settings: for Vitek (sensitive/resistant call): calls of the two sites; for MIC: Pseudomonas aeruginosa; as to Final (sensitive/resistant call): key: S = antibiotic sensitive; R = antibiotic resistance
Ka02 (MDR P. aeruginosa) = experiment: Mouse model of pneumonia driven by Ka02; type: in vivo, C57 Black mice; settings: for Animal survival at day 3: Ka02 lung infection, treatment from 1 hr post-infection; for Animal survival at day 3 / survivors at day 3: unchanged at day 9; for survivors at day 3: survivors/animals in group
Procedure: Sixty-one (61) male Adult C57 Black mice (25-30 g, Harlan Nossan, Milan, Italy) were housed in a controlled environment in cages with filter tops in specific pathogen-free conditions. They were briefly anesthetized with inhaled sevorane (Abbot Laboratories) in an oxygenated chamber and placed in a supine position with their heads elevated approximately 30°. Ka02 bacterial inoculums (10^6 cfu's in 50 μl of lactated Ringer's solution) were instilled slowly into the left lung of each animal using a gavage needle.
Mice were randomly divided into 3 experimental treatment groups as follows:
a) Saline-Treated (n=20): saline administered i.v. 1 hr after infection followed by one further i.p. administration at 5 hr post-infection; b) LST-002-Treated (n=21): LST-002 given i.v. 1 hr after infection at a dose of 20 mg/kg followed by one further i.p. administration at 5 hr post-infection at a dose of 15 mg/kg; c) Positive control-Imipenem-Treated (n=20): “Tienam” (Merck, Sharpe and Dohme)] (active ingredient, imipenem, a carbapenem antibiotic) given i.p. 1 hr after infection at a dose of 25 mg/kg followed by further i.p. administrations at 25 mg/kg at time points of 5 hr, 24 hr, 29 hr, 48 hr and 53 hr following infection.
Survival was monitored for all groups every 12 hrs until day 9 post-infection and data depicted in Kaplan-Meier curves (FIG. 18). […] Survival at day 9 was unchanged from survival data observed at day 3, i.e. LST-002 was 240% more efficacious in increasing survival in mice with pneumonia than a currently accepted treatment protocol and increased survival by 700% as compared with untreated mice.

[2] = test system: P. Aeruginosa strains harboring flagellin type B (Pa01, Ka01, Ka02, Ka03, Ka04, 25619, NCTC 10662); experiment: Whole-bacteria binding ELISA, flagellin type B strains; settings: LST-007 supernatant, LST-008 0.5 μg/ml
Procedure: P. aeruginosa laboratory strains PAK (flagellin type A) and Pa01 (flagellin type B) were grown overnight, diluted to an OD of 0.3 and washed with PBS. Fifty μl bacteria were then plated onto ELISA plates pre-coated with 50 μl poly-L-lysine (1 μg/ml in PBS) which were blocked with PBS-10% fetal calf serum (FCS). Following overnight incubation with bacteria at 4° C., plates were washed with 0.9% saline-0.05% Tween-20 and incubated with 1:2 dilutions of LST-001, LST-002, LST-007 supernatant or purified LST-003 (˜2 μg/ml) for 2 hrs at room temperature. Following washing, secondary goat anti-mouse (LST-001, LST-002) or goat anti-human detecting antibodies (LST-003, LST-007) were added and coloration generated following the addition of TMB substrate and plates read for absorbance (405 nm) following addition of 10% H2SO4.

[3] = test system: P. Aeruginosa flagellin type A strain 27853; settings: ELISA, LST-007 supernatant, LST-008 0.5 μg/ml
[4] = test system: MDR P. aeruginosa strain Ka02; experiment: "Sandwich" motility assay, Ka02; type: cell-based; settings: LST-002 0.3-80 μg/ml, even at very low concentrations
Procedure: Using an alternative in-vitro motility technology, the effects of LST-002 on motility of a MDR P. aeruginosa (PA) strain (Ka02) was performed. In 10 cm plastic culture dishes, a 6 ml underlayer of 0.6% agar in LB was poured and allowed to solidify. During this period, 6 ml of LB was aliquoted into separate tubes to which LST-002 was added at final concentrations 80, 20, 5, 1.25, 0.3 and 0 μg/ml. Thereafter, 10 μA of bacterial culture (containing ˜20-100 cfu) was added followed by 6 mls of 0.6% agar in LB. This ˜12 ml solution was poured onto the solidified agar under-layer. Following solidification, a final upper layer comprising of 6 mls 0.6% agar in LB was added. Plates were transferred to an incubator at 37° C. for 18-22 hr to allow bacterial growth and swarming (i.e. motility) and the diameter of the bacterial colonies measured.

laboratory strain Pa01 = experiment: "Sandwich" motility assay, Pa01; type: cell-based, P. aeruginosa; settings: LST-002 0.3-80 μg/ml, even at very low concentrations
MDR PA strain Ka02 = experiment: Neutropenic mouse thigh muscle infection model; type: in vivo, CD-1 mice
Procedure: Female CD-1 mice weighing 23-27 g (3-5 weeks in age) were rendered neutropenic by split i.p. administration of cyclophosphamide at doses of 150 mg/kg and 100 mg/kg on days 0 and +3. On day 4, 50 μl of freshly-grown Ka02 (2×10^7 cfu's per ml) was injected at a depth of 5 mm into the right thigh muscle (“ipsilateral”) whereas an equivalent volume of saline was injected into the left thigh muscle (“contralateral”). Over an ensuing 3 day period (days 5-7, i.e. 24, 48 and 72 hr following Ka02 administration), the surface areas of the infected thigh muscle lesions were measured with calipers in both ipsilateral and contralateral muscles. Ratios of surface areas of infection lesions of ipsilateral muscles divided by contralateral muscle lesions were calculated with ratios >1 indicative of Ka02. This calculation is called the Ratio-Infection Index (RII). In some mice, LST-002 was administered i.v. at 20 mg/kg, 60 min after administration of Ka02. Further dosing of LST-002 (10 mg/kg) was given i.p. at time points+5 hr, +24 hr and +48 hr after infection.

[5] = single i.v. injection at 10 mg/kg; preliminary
[6] = read-out: MIC site #1, heading: MIC site #1, Ka02, Vitek, testing site #1
[7] = read-out: MIC site #2, heading: MIC site #2, Ka02, Vitek, testing site #2
[8] = ipsilateral/contralateral lesion area, 20 mg/kg i.v. +60 min, 10 mg/kg i.p. +5, +24, +48 hr

Row | Molecule | Final (sensitive/resistant call) ([1]; Ka02) | Vitek (sensitive/resistant call) ([1]; Ka02) | also measured
1 | NCC[C@H](O)C(=O)N[C@@H]1C[C@H](N)[C@@H](O[C@H]2O[C@H](CN)[C@@H](O)[C@H](O)[C@H]2O)[C@H](O)[C@H]1O[C@H]1O[C@H](CO)[C@@H](O)[C@H](N)[C@H]1O [Amikacin] | S | S/S | 
2 | CC(C)(O/N=C(\C(=O)N[C@@H]1C(=O)N2C(C(=O)[O-])=C(C[n+]3ccccc3)CS[C@H]12)c1csc(N)n1)C(=O)O [Ceftazidime] | S-R | S/R | MIC [1, 6]: 8 µg/mL (≈ 14.6 µM)
3 | CN(C)c1ccc(O)c2c1C[C@H]1C[C@H]3[C@H](N(C)C)C(O)=C(C(N)=O)C(=O)[C@@]3(O)C(O)=C1C2=O [Minocycline] | R |  | 
4 | Piperacillin/Tazobactam | R | R/R | 
5 | CN(C)c1cc(NC(=O)CNC(C)(C)C)c(O)c2c1C[C@H]1C[C@H]3[C@H](N(C)C)C(O)=C(C(N)=O)C(=O)[C@@]3(O)C(O)=C1C2=O [Tigecycline] | R | R | MIC ([1]; read-out: MIC site #2): ≥ 8 µg/mL
6 | C[C@H]1COc2c(N3CCN(C)CC3)c(F)cc3c(=O)c(C(=O)O)cn1c23 [Levofloxacin] | R | R | MIC [1, 7]: ≥ 8 µg/mL
7 | Gentamicin |  | R/S | MIC site #2 ([1]; Ka02, Vitek, testing site #2): 4
8 | Trimethoprim-Sulfamethoxazole | R | R/R | 
9 | CO/N=C(\C(=O)N[C@@H]1C(=O)N2C(C(=O)[O-])=C(C[N+]3(C)CCCC3)CS[C@H]12)c1csc(N)n1 [Cefepime] | R | R/R | 
10 | Amoxicillin/Calvulanic acid | R | R | MIC site #2 ([1]; Ka02, Vitek, testing site #2): 32
11 | CCN1CCN(C(=O)N[C@@H](C(=O)N[C@@H]2C(=O)N3[C@@H]2SC(C)(C)[C@@H]3C(=O)O)c2ccccc2)C(=O)C1=O [Piperacillin] | R | R | 
12 | Ampicillin/Sulbactam | R | R/R | 
13 | Ticracillin/CA | R | R | 
14 | C[C@@H](O)[C@H]1C(=O)N2C(C(=O)O)=C(S[C@@H]3CN[C@H](C(=O)N(C)C)C3)[C@H](C)[C@H]12 [Meropenem] | R | R/R | 
15 | Colistin | S | S | MIC site #2 ([1]; Ka02, Vitek, testing site #2): 2
16 | C[C@H]1[C@H](NC(=O)/C(=N\OC(C)(C)C(=O)O)c2csc(N)n2)C(=O)N1S(=O)(=O)O [Aztreonam] | R | R | 
17 | O=C(N[C@H](CO)[C@H](O)c1ccc([N+](=O)[O-])cc1)C(Cl)Cl [Chloramphenicol] | R | R | 
18 | NC[C@H]1O[C@H](O[C@H]2[C@H](O)[C@@H](O[C@H]3O[C@H](CO)[C@@H](O)[C@H](N)[C@H]3O)[C@H](N)C[C@@H]2N)[C@H](N)C[C@@H]1O [Tobramycin] | R | R/I | MIC [1, 7]: 8 µg/mL (≈ 17.1 µM)
19 | O=C(O)c1cn(C2CC2)c2cc(N3CCNCC3)c(F)cc2c1=O [Ciprofloxacin] | R | R/R | MIC [1, 6]: 4 µg/mL (≈ 12.1 µM); MIC [1, 7]: ≥ 4 µg/mL
20 | CO/N=C(\C(=O)N[C@@H]1C(=O)N2C(C(=O)O)=C(COC(C)=O)CS[C@H]12)c1csc(N)n1 [Cefotaxime] | R | R/R | 
21 | C[C@@H](O)[C@H]1C(=O)N2C(C(=O)O)=C(SCCN=CN)C[C@H]12 [Imipenem] | R | R | Animal survival at day 3 (Ka02 (MDR P. aeruginosa)): 30%; survivors at day 3 (Ka02 (MDR P. aeruginosa)): 6/20
22 | B1 |  |  | binding to whole bacteria harboring flagellin type B [2]: specifically binds to all seven P. Aeruginosa bacteria strains tested; binding to whole bacteria harboring flagellin type A [3]: not flagellin type A
23 | B2 |  |  | size of bacterial colonies (motility) [4]: significant reduction in the size of bacterial colonies; size of bacterial colonies (motility) (laboratory strain Pa01): significant reduction in the size of bacterial colonies; Animal survival at day 3 (Ka02 (MDR P. aeruginosa)): 71.4%; increased survival as compared with untreated mice (Ka02 (MDR P. aeruginosa); day 3 / day 9 survival): 700%; more efficacious in increasing survival than currently accepted treatment protocol (imipenem) (Ka02 (MDR P. aeruginosa); day 3 / day 9 survival): 240%; survivors at day 3 (Ka02 (MDR P. aeruginosa)): 15/21; Ratio-Infection Index (RII) day 5 (MDR PA strain Ka02; [8]): 1.09; Ratio-Infection Index (RII) day 7 (MDR PA strain Ka02; [8]): 0.96; infection lesions in thigh muscle infected with Ka02 (MDR PA strain Ka02; neutropenic mice): totally prevented infection lesions; early plasma concentration [5]: ~200 µg/mL
